This test deals with phospholipids (phosphatidylinositols vs phosphatidylcholine). Kind of test: Proteome chip lipid-binding screen, overall analysis of six liposomes (PI/PC specificity). Conditions: phospholipid liposome probes. An excerpt: FIGS. 4A-4D. Analysis of the phosphatidylinositol-binding proteins. To determine the phosphatidylinositol (“PI”)-binding specificity of 150 positive proteins, their binding signals were normalized against the corresponding binding signals of phosphatidylcholine (“PC”). Based on the ratios (“PI/PC”), the proteins were grouped into four categories: (A) 30 strong and specific, (B) 43 strong and nonspecific, (C) 19 weak and specific, and (D) 58 weak and nonspecific phosphatidylinositol-binding proteins. The intensity represents the PI/PC signal ratio as shown by the scale in the figure. The column, labeled “10^n” to the right of the PI/PC binding ratios indicates the maximum binding signal intensity (open boxes) and its confidence interval (solid horizontal lines); the numbers indicate the log of the values. Boxes in the three columns to the right of the confidence interval column indicate membrane-associated proteins (“Membrane”), kinases (“Kinase”), and uncharacterized ORFs (“Unknown”), respectively.
To identify PI-binding proteins in yeast, liposomes were used as probes because the liposome provides the most relevant physiological condition to assay the interactors. Six types of liposomes were used. […] The biotinylated lipid serves as a label that can be detected by Cy3-streptavidin (21). […]

For the substance “RIM15: yeast protein kinase, regulator of glucose metabolism, GST-HisX6 fusion”, the “identified as lipid-binding interactor” value is on record as “identified”.

The values are drawn from patent publication US20050182242A1, “Global analysis of protein activities using proteome chips” (priority 2001, published 2005).
